Drawing on paper PMC9958940 (Viruses, 2023), this text covers IC50 for 1 molecule.

One test relates to SARS-CoV-2 E406W variant. In kind it is cell-based. The note with it: read-out: SARS-CoV-2 RNA IC50, E406W.
Test [1] concerns SARS-CoV-2 R10/E796G C799F. In kind it is cell-based. The note with it: read-out: SARS-CoV-2 RNA IC50, R10/E796G C799F.

pIC50: −log10 of the molar value. Starred links: 1 amine or outer side, 2 acyl side, 3 side chain; linkers in the order of their positions; H or OH if unused. Positions of bridges follow the written chain, without caps; N, C: chain ends. Non-standard residues stand in square brackets, D forms with d. Residues, ends and D or L forms follow the SMILES beside them. *: point of attachment. hTyr(3S-OH,4S-OH,3'-OSO3H) = N[C@H](C(=O)O)[C@H](O)[C@@H](O)c1ccc(O)c(OS(=O)(=O)O)c1; Orn(4R-OH,5R-OH) = O=C([C@H](C[C@@H](O)[C@@H](O)N[*:3])N[*:1])[*:2]; Pro(3S-OH,4S-Me) = C[C@H]1CN[C@H](C(=O)O)[C@H]1O; X1 = CCCCCOc1ccc(-c2cc(-c3ccc(C(=O)*)cc3)no2)cc1; Gln(3R-OH) = NC(=O)C[C@@H](O)[C@H](N)C(=O)O; Hyp = O=C(O)[C@@H]1C[C@@H](O)CN1

Take `CCCCCOc1ccc(-c2cc(-c3ccc(C(=O)N[C@H]4C[C@@H](O)[C@@H](O)NC(=O)[C@@H]5[C@@H](O)[C@@H](C)CN5C(=O)[C@H]([C@H](O)CC(N)=O)NC(=O)[C@H]([C@H](O)[C@@H](O)c5ccc(O)c(OS(=O)(=O)O)c5)NC(=O)[C@@H]5C[C@@H](O)CN5C(=O)[C@H]([C@@H](C)O)NC4=O)cc3)no2)cc1` [Micafungin] (X1-[Orn(4R-OH,5R-OH)]T[Hyp][hTyr(3S-OH,4S-OH,3'-OSO3H)][Gln(3R-OH)][Pro(3S-OH,4S-Me)]; lactam 1-C): the results for the pIC50 (in the test with SARS-CoV-2 E406W variant; in test [1]) were 4.66 and 4.50, respectively.
